The source of these data is ChEMBL document CHEMBL1151292, “Antineoplastic activity and cytotoxicity of flavones, isoflavones, and flavanones” (1979).

For assay [1], the system named is KB. Kind of assay: Cytotoxicity against human KB cells. Type of assay: functional. The note with it: read-out: ED50 (the source's name).
Assay [2] has as its system CCRF S-180. Kind of assay: In vivo antitumor activity against mouse S180 cells. It is filed as functional, organism-based.
Assay [3] has as its system P388. The assay is described as follows: In vivo antitumor activity against mouse P388 cells. Type of assay: functional, organism-based.
The subject of assay [4] is B16. Kind of assay: In vivo antitumor activity against mouse B16 carcinoma cells. Type of assay: functional, organism-based.
The subject of assay [5] is L1210. Kind of assay: In vivo antitumor activity against mouse L1210 cells. It is filed as functional, organism-based.
The test system of assay [6] is Rattus norvegicus. The assay is described as follows: In vivo antitumor activity against rat dunning leukemia cells. Type of assay: functional, organism-based.
For assay [7], the system named is P1798. The assay is described as follows: In vivo antitumor activity against mouse P1798 cells. Type of assay: functional, organism-based.
In assay [8] the test system is Lewis lung carcinoma cell line. Kind of assay: In vivo antitumor activity against mouse LLC cells. Type of assay: functional, organism-based.
Assay [9] relates to FV. The assay is described as follows: In vivo antitumor activity against mouse FV cells. It is filed as functional, organism-based.
For assay [10], the system named is Walker 256. The assay is described as follows: In vivo antitumor activity against rat Walker 256 cells. It is filed as functional, organism-based.
In assay [11] the test system is CA-755. Kind of assay: In vivo antitumor activity against mouse CA-755 cells. It is filed as functional, organism-based.
Assay [12] concerns P1. The assay is described as follows: In vivo antitumor activity against hamster P1 cells. It is filed as functional, organism-based. The note with it: Cricetinae.
The subject of assay [13] is PX. The assay is described as follows: In vivo antitumor activity against hamster PX cells. It is filed as functional, organism-based. The note with it: Cricetinae.

The structures appear in SMILES notation. In brackets after ≈: the same amount, converted by molar mass. Activity calls are given as the source filed them. Unless noted, the rule behind the calls is not given here.

On to `Cc1ccc2oc(-c3ccccc3)c(O)c(=O)c2c1`, for which, in assay [1], the EC50 stood at 2 µg/mL (≈ 7.93 µM). For the same compound, the result in assay [2], in assay [3], in [4] and in [5] was inactive.

For the compound `COc1cc(O)c2c(=O)cc(-c3ccccc3)oc2c1` [TECHTOCHRYSIN], in assay [1], the EC50 was found to be 49 µg/mL (≈ 183 µM). In addition, the outcome in assay [5], in assay [6] and in [7] was inactive.

In the case of `COc1cc(OC)cc(-c2cc(=O)c3c(OC)c(OC)c(OC)c(OC)c3o2)c1`, the EC50 in assay [1] stood at 3 µg/mL (≈ 7.46 µM). In addition, the result in assay [2] and in assay [8] was inactive. Besides, in [9], the result was Active.

As to `COc1cccc(OC)c1-c1oc2ccccc2c(=O)c1O`, in [1], the EC50 came out at 1 µg/mL (≈ 3.35 µM). The result in [2], in [3], in assay [5] and in assay [9] was inactive.

As for `O=c1c(O)c(-c2ccc(O)c(O)c2)oc2cc(O)ccc12` [FISETIN], the EC50 in assay [1] was more than 100 µg/mL. Besides, the outcome in assay [2], in [3], in [5] and in assay [8] was inactive.

On to `COc1ccc(-c2cc(=O)c3cc(OC)c(OC)c(OC)c3o2)cc1`, for which the EC50 in assay [1] came out at 5 µg/mL (≈ 14.6 µM). Moreover, the result in assay [2], in assay [10], in assay [8] and in assay [9] was inactive.

As for `COc1ccc(-c2cc(=O)c3c(O)c(OC)c(O)cc3o2)cc1` [PECTOLINARIGENIN], in [1], the EC50 is 3 µg/mL (≈ 9.55 µM). The outcome in assay [2], in assay [3], in assay [10] and in [5] was inactive.

In the case of `O=c1c(O)c(-c2ccc(O)cc2O)oc2cc(O)cc(O)c12`, the result in [2], in [3], in [5] and in assay [11] was inactive.

`COc1ccc(-c2oc3cc(O)c(OC)c(O)c3c(=O)c2OC)cc1O` [CENTAUREIDIN]: the EC50 in [1] was 0.4 µg/mL (≈ 1.11 µM). For the same compound, the outcome in assay [3] was inactive.

As for `COc1ccc(-c2cc(=O)c3c(OC)c(OC)c(OC)c(OC)c3o2)cc1` [TANGERETIN], in assay [1], the EC50 worked out at 15 µg/mL (≈ 40.3 µM). The outcome in assay [2], in [12], in assay [5] and in assay [11] was inactive. In addition, the outcome in [13] was Active.

Turning to `O=c1c(O[C@@H]2O[C@H](CO)[C@@H](O)[C@H](O)[C@H]2O)c(-c2ccc(O)c(O)c2)oc2cc(O)cc(O)c12` [ISOQUERCETIN], the EC50 in assay [1] was more than 100 µg/mL. In addition, the outcome in [2], in assay [3], in assay [10], in assay [5] and in assay [11] was inactive.

As for `COc1ccc(-c2cc(=O)c3c(O)cc(O)cc3o2)cc1` [ACACETIN], in [1], the EC50 was more than 100 µg/mL. Further, the outcome in assay [2], in assay [3], in [5] and in assay [11] was inactive.

For `O=C1c2cc(O)c(O)cc2OC(c2ccc(O)c(O)c2)C1O` (stereo not given), the result in [2], in assay [3] and in assay [5] was inactive.

Regarding `O=c1c(O)c(-c2cc(O)c(O)c(O)c2)oc2cc(O)cc(O)c12` [MYRICETIN], the EC50 in [1] was determined as 15 µg/mL (≈ 47.1 µM). Besides, the result in assay [4] and in assay [5] was inactive.

`O=c1cc(-c2ccc(O)cc2)oc2cc(O)cc(O)c12` [APIGENIN]: the EC50 in [1] is 7.4 µg/mL (≈ 27.4 µM). Moreover, the outcome in assay [5], in assay [6] and in [7] was inactive.

With `COc1ccc(-c2cc(=O)c3c(O)cc(OC)cc3o2)cc1` [APIGENIN DIMETHYLETHER], the EC50 in [1] came out at 45 µg/mL (≈ 151 µM). The outcome in [2], in [3], in [5] and in assay [8] was inactive.

Take `O=c1c(O)c(-c2ccccc2)oc2ccccc12` [FLAVONOL]: the EC50 in assay [1] worked out at 0.2 µg/mL (≈ 0.839 µM). Also, the outcome in assay [2], in assay [3], in assay [4], in assay [5], in assay [11] and in assay [8] was inactive.

Regarding `COc1ccc(-c2oc3cc(O)cc(O)c3c(=O)c2OC)cc1O`, in assay [1], the EC50 amounted to 2 µg/mL (≈ 6.06 µM). In addition, the outcome in [3] was inactive.

Regarding `COc1cc2c(=O)cc(-c3ccc(O)cc3)oc2c(OC)c1OC`, the EC50 in assay [1] worked out at 0.7 µg/mL (≈ 2.13 µM). In addition, the outcome in [2] and in assay [8] was inactive. The result in [10] and in [9] was Active.
